# In patent US10232013B2, “Use of an antimicrobial peptide TP4 in treating a cancer” (Academia Sinica, priority 2016, dated 2019):
# Counter-ions that a name gives are not always drawn.
# Assays:
# Type in all cases: cell-based, human
# [1] = tested on: FOSB in MB231 cells; test: FOSB induction, Western blot/immunocytochemistry, MB231; settings: for effect of inhibitor on TP4-induced FOSB induction: TNBC cells, pre-treatment prior to TP4, Western blot
# Procedure: (§1) Nuclear extracts were prepared as previously described^23. Equal amounts of nuclear extract (200 μg) were used for immunoprecipitation (IP) using Dynabeads protein G (ThermoFisher Scientific), in accordance with the recommended protocol. cJUN antibody (ThermoFisher Scientific, clone C.238.2) was used for immunoprecipitation. Total cell extract preparation and Western blot were performed as previously described^23. Equal amounts of boiled lysate (20 μg of total cell extract) were separated on acrylamide gels, and then transferred to PVDF membranes. The membranes were incubated in blocking solution (0.1 M PBS, 5% non-fat milk, 0.2% Tween-20) for 1 h at room temperature (RT), and then incubated in the same solution with primary or secondary antibodies (GE Healthcare Life Science). […] Membranes were visualized with enhanced chemiluminescence (Immobilon Western Chemiluminescent HRP substrate, Merck Millipore) and detected by an imaging system (UVP, BioSpectrum™ 500). Signal intensities were determined by densitometric analysis (AlphaInnotech) using the AlphaImager program. The results were expressed as relative densitometric units (RDU) (the densitometric units of FOSB+FOSΔB divided by those of GAPDH).
# The plasma membrane and mitochondria were stained by pre-incubating biotinylated-TP4 treated cells (14 μg mL^−1, 3 h) with Alexa Flour 647 dye-conjugated wheat germ agglutinin (WGA) (5 μg mL^−1) (ThermoFisher Scientific) for 10 min at 37° C. or with MitoTracker® Red CMXRos probe (200 nM) (ThermoFisher Scientific) for 45 min at 37° C. prior to cell fixation. […] The fluorescent signal (which is proportional to functional mitochondria) was quantitatively determined using Image J software. […] The fluorescent FOSB signal was quantitatively determined using Image J software. […]
# [2] = tested on: MB231 (MDA-MB231) cells; test: MTS cell viability assay, MB231; settings: MB231, inhibitor added 30 min prior to TP4, cell viability
# Procedure: Cell-lines used in this study were purchased from the Bioresource Collection and Research Center (BCRC) in and the cells were cultured by the standard cell culture procedures and conditions provided by the BCRC. MB231 (BCRC 60425), MB453 (BCRC 60429), and HDF cells were cultured as previously described by Ting et al. MCF7 […] cells were maintained in α-MEM medium (ThermoFisher Scientific) supplemented with 2 mM L-glutamine, 10% FBS, 0.1 mM non-essential amino acids, 1 mM sodium pyruvate, and antibiotics (100 U mL^−1 penicillin G and […] streptomycin). M10 (BCRC 60197) cells were maintained in α-MEM medium (ThermoFisher Scientific) supplemented with 10% FBS and antibiotics. With the exception of MB231 and MB453, all cells were cultured at 37° C. with 5% CO2. For the cell viability and transfection assay, 1×10^4 cells [5×10^3 M10 cells were seeded and cultured for 48 h to allow the cells sufficient time for attachment] were seeded into the wells of a 96-well plate and cultured overnight. For the transfection assays, cells were transfected with 0.1-0.4 μg FOSB/FOSAB expression plasmid (Origene Technology Inc.) and cell viability was determined after 72 h. The transfection efficiencies (number of cells expressing eGFP/all cells) of the MB231 transfection assays were determined by observing ten randomly selected fields (from three independent transfections) of control GFP plasmid transfections under an inverted microscope (Olympus, IX71) coupled to a digital camera (Olympus DP80), using an […] (LCPlanFI 20×/0.40 Ph1). CellSens standard software (Olympus) was used for image acquisition. During the drug treatment assay, inhibitors (PD98059, BAPTA-AM, and AlP II) were added 30 min prior to TP4, and cell viability was determined at indicated time-points. Transfection was performed using LipofectAMINE™ 3000 (ThermoFisher Scientific), according to the manufacturer's recommendations. Knock-down cells were generated by transducing MB231 cells with pre-synthesized FOSB (or control) shRNA lentiviral particles (Santa Cruz Biotechnology), and selecting puromycin-resistant cells in accordance with the manufacturer's standard protocol. MB231 or M10 cells stably expressing eGFP or mOrange2 were generated through transfection with peGFP-puromycin or pmOrange2-C1 plasmid, followed by puromycin (5 μg mL^−1) or G418 (500 μg mL^−1) selection as described above.
# Cell viability was quantitatively analyzed using the CellTiter-Glo® Luminescent Cell Viability Assay kit (ATP assay) and CellTiter 96® AQueous Non-Radioactive Cell Proliferation Assay kit (MTS assay) (Promega) in accordance with the manufacturer's protocol. For MTS assay, 1×10^4 cells were seeded into the wells of a 96-well plate and cultured overnight [5×10^3 M10 cells were seeded and cultured for 48 h to enable sufficient well attachment]. Cells were subsequently treated with different doses of TP4 (2.5-20 μg mL^−1) and harvested at the indicated time-points (3-24 h). Reaction mixtures (20 μL: MTS+PMS, using a ratio 20:1) were directly added to the cells, and the plates were incubated for 3 h at 37° C. Absorbance at 490 nm is directly proportional to the number of living cells in culture and was measured using a photometer (SpectraMax® i3, Molecular Devices). ATP assay was performed as previously described by Ting et al. Lactate dehydrogenase (LDH) assays were performed by quantitatively measuring cell lysis with a Cytotoxicity Detection Kit^PLUS (LDH) (Roche) in accordance with the manufacturer's protocol. The LDH standard was purchased from Cayman Chemical. Briefly, 1×10^4 cells were seeded into the wells of a 96-well plate and cultured overnight. Culture media were replaced with fresh medium containing 1% FBS and cells were subsequently treated with different doses of TP4 (2.5-20 μg mL^−1). Supernatants were harvested at 3 h. […]
# [3] = tested on: FOSB in MB453 cells; test: FOSB induction, Western blot/immunocytochemistry, MB453; settings: Western blot
# Procedure: as §1, with “GAPDH). […]” for “GAPDH).”
# [4] = tested on: FOSB in MCF7 cells; test: FOSB induction, Western blot/immunocytochemistry, MCF7; settings: Western blot
# Procedure: as §1, with “GAPDH). […]” for “GAPDH).”
Compound,effect of inhibitor on TP4-induced FOSB induction [1],effect of inhibitor on TP4-induced TNBC cell death [2],FOSB induction [3],FOSB induction [4],further results
"Autocamtide-2 related inhibitory peptide II [AIP2, reference compound]","trend towards decrease, but not complete block",partly prevented,–,–,–
"COc1cccc2c1C(=O)c1c(O)c3c(c(O)c1C2=O)C[C@@](O)(C(=O)CO)C[C@@H]3O[C@H]1C[C@H](N)[C@H](O)[C@H](C)O1 [doxorubicin, Doxorubicin hydrochloride]",–,–,–,–,"FOSB induction ([1]; MB231 (TNBC) cells, Western blot): induced strong FOSB expression"
"CC(=O)OCOC(=O)CN(CC(=O)OCOC(C)=O)c1ccccc1OCCOc1ccccc1N(CC(=O)OCOC(C)=O)CC(=O)OCOC(C)=O [BAPTA/AM, 1,2-Bis(2-aminophenoxy)ethane-N,N,N,N-tetraacetic acid tetrakis(acetoxymethyl ester), reference compound]",disrupted,disrupted,–,–,–
"COc1cccc(-c2cc(=O)c3ccccc3o2)c1N [PD98059, reference compound]",–,disrupted,–,–,–
"CC(=O)O[C@@]12CO[C@@H]1C[C@H](O)[C@@]1(C)C(=O)[C@H](O)C3=C(C)[C@@H](OC(=O)[C@H](O)[C@@H](NC(=O)OC(C)(C)C)c4ccccc4)C[C@@](O)([C@@H](OC(=O)c4ccccc4)[C@H]21)C3(C)C [docetaxel, Docetaxel]",–,–,induced FOSB,induced FOSB,–
"CC(=O)O[C@H]1C(=O)[C@@]2(C)[C@H]([C@H](OC(=O)c3ccccc3)[C@]3(O)C[C@H](OC(=O)[C@H](O)[C@@H](NC(=O)c4ccccc4)c4ccccc4)C(C)=C1C3(C)C)[C@]1(OC(C)=O)CO[C@@H]1C[C@@H]2O [paclitaxel, Paclitaxel]",–,–,induced FOSB,induced FOSB,–
